pIC50: −log10 of the molar value.

Drawing on ChEMBL document CHEMBL4043144, “Design, synthesis and evaluation of 2,2-dimethyl-1,3-dioxolane derivatives as human rhinovirus 3C protease inhibitors” (Bioorg Med Chem Lett, 2017), this text covers inhibition and IC50 for 13 compounds.

The subject of test [1] is Human rhinovirus sp. Put plainly: Inhibition of recombinant N-terminal His-tagged HRV 3C protease expressed in Escherichia coli at 10 uM preincubated for 15 mins followed by LEVLFQGPSK substrate addition after 45 mins by reverse-phase HPLC analysis relative to control.
Test [2] is described as follows: Inhibition of recombinant N-terminal His-tagged HRV 3C protease expressed in Escherichia coli preincubated for 15 mins followed by LEVLFQGPSK substrate addition after 45 mins by reverse-phase HPLC analysis. The arrangement: species or system Human rhinovirus sp.
Test [3] concerns Human rhinovirus sp. In words: Inhibition of recombinant N-terminal His-tagged HRV 3C protease expressed in Escherichia coli at 100 uM preincubated for 15 mins followed by LEVLFQGPSK substrate addition after 45 mins by reverse-phase HPLC analysis relative to control.

Broadly, the inhibition is how much of the control response was suppressed. A word on the pIC50: it is −log10 of the IC50, conventionally taken in molar units. Regarding `CC1(C)O[C@H](C(=O)Nc2nc3ccccc3s2)[C@@H](C(=O)N2CCN(Cc3ccccc3)CC2)O1`, the inhibition in the test on Human rhinovirus sp. [1] stood at 20.8%; in the test on Human rhinovirus sp. [3], 56.4%. Further, in test [2], the pIC50 was less than 5.00.
The matching figures for `CC1(C)O[C@@H](C(=O)Nc2nc3ccccc3s2)[C@H](C(=O)N2CCN(c3ccccc3)CC2)O1`: 69%, 100% and 5.07.
Turning to `CC1(C)O[C@H](C(=O)Nc2nc3ccccc3s2)[C@@H](C(=O)N2CCN(c3ccccc3C#N)CC2)O1`, the inhibition in the test with Human rhinovirus sp. [1] is 48.1%; with Human rhinovirus sp. [3], 84.2%. The pIC50 in test [2] is less than 5.00.
Take `COc1cccc(NCCNC(=O)[C@@H]2OC(C)(C)O[C@H]2C(=O)Nc2nc3ccccc3s2)c1`: the inhibition in the test with Human rhinovirus sp. [1] was 62.2%; in the test with Human rhinovirus sp. [3], 99.9%. Moreover, in test [2], the pIC50 was 5.08.
Turning to `Cc1cccc(CN2CCN(C(=O)[C@H]3OC(C)(C)O[C@@H]3C(=O)Nc3nc4ccccc4s3)CC2)c1`, the inhibition came out at 34.3% with Human rhinovirus sp. [1] and 85.3% with Human rhinovirus sp. [3]. The pIC50 in test [2] is less than 5.00.
For the compound `COc1cccc(NCCNC(=O)[C@H]2OC(C)(C)O[C@@H]2C(=O)Nc2nc3ccccc3s2)c1`, the inhibition in the test on Human rhinovirus sp. [1] turned out to be 43.6%; in the test on Human rhinovirus sp. [3] it was 85.2%. For the same compound, the pIC50 in test [2] is less than 5.00.
For `CC1(C)O[C@H](C(=O)Nc2nc3ccccc3s2)[C@@H](C(=O)N2CCN(c3ccccc3)CC2)O1`, in that order: 17.5%, 67.8% and less than 5.00.
The matching figures for `CC1(C)O[C@@H](C(=O)Nc2nc3ccccc3s2)[C@H](C(=O)N2CCN(Cc3ccccc3)CC2)O1`: 18.8%, 85.5% and less than 5.00.
The matching figures for `CC1(C)O[C@@H](C(=O)Nc2nc3ccccc3s2)[C@H](C(=O)N2CCN(c3ccccc3C#N)CC2)O1`: 86%, 100% and 5.60.
As for `COc1cccc(NCCNC(=O)[C@@H]2OC(C)(C)O[C@H]2C(=O)Nc2ccc3ccccc3c2)c1`, the inhibition in the test with Human rhinovirus sp. [1] turned out to be 44%; with Human rhinovirus sp. [3], 80.6%. Also, the pIC50 in test [2] was less than 5.00.
Take `CC1(C)O[C@@H](C(=O)Nc2nc3ccccc3s2)[C@H](C(=O)N2CCN(c3ccccn3)CC2)O1`: the inhibition in the test with Human rhinovirus sp. [1] came to 64.4%; in the test with Human rhinovirus sp. [3] it was 97.8%. Moreover, the pIC50 in test [2] was 4.97.
For `CC1(C)O[C@H](C(=O)Nc2nc3ccccc3s2)[C@@H](C(=O)N2CCN(c3ccccn3)CC2)O1`, in that order: 10.8%, 82.5% and less than 5.00.
As for `Cc1cccc(CN2CCN(C(=O)[C@@H]3OC(C)(C)O[C@H]3C(=O)Nc3nc4ccccc4s3)CC2)c1`, the results for the inhibition with Human rhinovirus sp. [1] and with Human rhinovirus sp. [3] were 20.2% and 78.7%, respectively. In test [2], the negative logarithm of the IC50 (pIC50) is less than 5.00.
